Measurements: patent US4118418A, “5-Phenenyltris (ureylene) triisophthalic acid salts” (American Cyanamid Company, priority 1977, dated 1978)
Where a name gives a salt, the structure may show the parent alone.

Columns and labels:
[1] = test system: hereditary angioneurotic edema; details: New England Journal of Medicine, 286, 808-812 (1972); cited from earlier work
[2] = test system: complement system; details: literature; cited from earlier work
[3] = test system: Citrated sheep plasma; test: in vitro anti-coagulant activity (AC), clotting of recalcified citrated sheep plasma; assay type: biochemical
Description: The sheep RBC's, kept in suspension throughout the clotting incubation time, become enmeshed in the fibrin matrix if a clot forms. Upon centrifugation of the plate, untrapped RBC's form buttons, the sizes of which correspond to the degree of clot inhibition; this providing a measure of anti-coagulant activity (AC). Sodium heparin is used as a positive control and activity is reported in wells appearing in Table I.
**Activity in wells a serial dilution assay. Higher well number indicates
higher activity. The serial dilutions are two-fold.

[4] = test system: shunt pathway activated by cobra venom factor; test: Test, Code 036 (C-Shunt inhibitor), lysis of human erythrocytes in autologous serum via shunt pathway; assay type: cell-based; details: Table I; two-fold serial dilutions
Text: (§1) An active inhibitor protects C2 from C1 and C4; (ii) Test, Code O35 (C3-C9 inhibitor) -- This test determines the ability of the late components of human complement (C3-C9) to lyse EAC l42 in the presence of appropriate dilutions of the test compound. An active inhibitor protects EAC 142 from lysis by human C3-C9; (iii) Test, Code 036 (C-Shunt inhibitor) -- In this test human erythrocytes rendered fragile are lysed in autologous serum via the shunt pathway activated by cobra venom factor in the presence of appropriate dilutions of the test compound. Inhibition of the shunt pathway results in failure of lysis; (iv) Forssman Vasculitis Test -- Here, the well known complement dependent lesion, Forssman vasculitis, is produced in guinea pigs by intradermal injection of rabbit anti-Forssman antiserum. […]

[5] = target: T1, activated human C1 (Homo sapiens, UniProt P09871); test: Intrinsic Therapeutic Index (Code 026 C1 inhibitor test versus anti-coagulant test); details: Table II
T1 sequence (P09871 16-688): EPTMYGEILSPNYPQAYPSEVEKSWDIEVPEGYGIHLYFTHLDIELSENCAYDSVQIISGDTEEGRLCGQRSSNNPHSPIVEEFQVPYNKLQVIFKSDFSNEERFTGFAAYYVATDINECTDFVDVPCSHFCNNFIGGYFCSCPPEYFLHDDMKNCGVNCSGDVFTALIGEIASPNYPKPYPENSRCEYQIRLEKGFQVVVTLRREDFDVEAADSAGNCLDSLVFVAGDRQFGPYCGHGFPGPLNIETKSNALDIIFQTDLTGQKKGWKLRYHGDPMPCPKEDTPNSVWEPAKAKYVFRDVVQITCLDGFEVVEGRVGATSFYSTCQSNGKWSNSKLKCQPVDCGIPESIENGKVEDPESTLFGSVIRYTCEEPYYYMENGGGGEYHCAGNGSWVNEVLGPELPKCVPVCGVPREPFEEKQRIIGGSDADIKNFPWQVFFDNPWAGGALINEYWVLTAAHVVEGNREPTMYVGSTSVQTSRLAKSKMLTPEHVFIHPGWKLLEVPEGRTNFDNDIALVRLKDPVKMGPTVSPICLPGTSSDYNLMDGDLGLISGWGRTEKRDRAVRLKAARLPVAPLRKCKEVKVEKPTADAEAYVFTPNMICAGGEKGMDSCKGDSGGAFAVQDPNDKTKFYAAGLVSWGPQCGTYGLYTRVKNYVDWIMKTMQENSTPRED
T1 sequence (P00736 18-705 partner): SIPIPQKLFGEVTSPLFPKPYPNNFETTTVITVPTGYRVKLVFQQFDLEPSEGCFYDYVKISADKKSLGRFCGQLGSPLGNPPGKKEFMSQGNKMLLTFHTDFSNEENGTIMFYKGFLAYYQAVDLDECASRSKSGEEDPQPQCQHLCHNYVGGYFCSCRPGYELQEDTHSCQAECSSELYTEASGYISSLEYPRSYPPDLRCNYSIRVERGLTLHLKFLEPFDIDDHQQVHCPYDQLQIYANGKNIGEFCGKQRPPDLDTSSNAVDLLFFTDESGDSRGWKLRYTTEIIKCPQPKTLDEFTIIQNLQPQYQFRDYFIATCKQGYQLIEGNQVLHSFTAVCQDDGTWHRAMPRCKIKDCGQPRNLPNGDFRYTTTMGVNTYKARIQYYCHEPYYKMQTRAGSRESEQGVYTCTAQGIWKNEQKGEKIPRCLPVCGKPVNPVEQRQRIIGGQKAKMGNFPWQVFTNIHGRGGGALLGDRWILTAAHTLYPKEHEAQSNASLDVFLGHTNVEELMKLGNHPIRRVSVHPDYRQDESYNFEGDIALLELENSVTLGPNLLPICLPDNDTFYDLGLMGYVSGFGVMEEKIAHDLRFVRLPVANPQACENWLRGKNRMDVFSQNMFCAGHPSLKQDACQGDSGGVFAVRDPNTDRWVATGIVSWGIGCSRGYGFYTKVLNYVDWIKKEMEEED
T1 sequence (P02745 23-245 partner): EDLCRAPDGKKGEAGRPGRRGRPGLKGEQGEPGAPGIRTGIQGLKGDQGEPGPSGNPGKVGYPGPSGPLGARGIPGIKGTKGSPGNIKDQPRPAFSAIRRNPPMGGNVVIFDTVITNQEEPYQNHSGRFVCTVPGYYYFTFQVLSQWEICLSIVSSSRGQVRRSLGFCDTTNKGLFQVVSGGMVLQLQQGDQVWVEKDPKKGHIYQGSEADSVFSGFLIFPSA
T1 sequence (P02746 28-253 partner): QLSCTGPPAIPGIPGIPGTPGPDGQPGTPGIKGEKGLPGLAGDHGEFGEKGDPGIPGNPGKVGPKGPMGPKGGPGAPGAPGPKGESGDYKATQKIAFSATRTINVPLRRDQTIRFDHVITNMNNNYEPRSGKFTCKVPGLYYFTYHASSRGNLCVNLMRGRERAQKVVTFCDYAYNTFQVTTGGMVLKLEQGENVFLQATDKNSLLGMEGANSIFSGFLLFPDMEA
T1 sequence (P02747 29-245 partner): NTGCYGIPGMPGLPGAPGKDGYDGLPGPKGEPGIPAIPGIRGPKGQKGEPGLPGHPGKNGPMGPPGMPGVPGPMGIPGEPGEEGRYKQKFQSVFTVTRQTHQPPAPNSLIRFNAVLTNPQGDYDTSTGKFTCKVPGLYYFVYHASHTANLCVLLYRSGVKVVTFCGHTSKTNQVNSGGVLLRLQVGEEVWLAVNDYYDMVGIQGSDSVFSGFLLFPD
Text: The computation of an Intrinsic Therapeutic Index (ITI) was devised to correlate the results expressed in wells, obtained in the in vitro Code 026 (C1 inhibitor) test and the in vitro anti-coagulant (AC) test into a meaningful value which would aid in the net evaluation of the activity of the compounds of this invention.
The ITI is thus a measure of the separation of anti-complement and anti-coagulant activities; the higher the numerical value the more therapeutically useful the separation of activities.

[6] = target: T1, activated human C1; test: Test, Code 026 (C1 inhibitor); assay type: biochemical; details: Table II; highest active serial dilution
Text: as §1

[7] = test system: whole complement; test: Complement Level Reduction Test, whole complement in serum of dosed guinea pigs by capillary tube assay; assay type: in vivo; details: i.p., 200 mg/kg
Text: An active inhibitor protects C2 from C1 and C4; (ii) Test, Code O35 (C3-C9 inhibitor) -- This test determines the ability of the late components of human complement (C3-C9) to lyse EAC l42 in the presence of appropriate dilutions of the test compound. An active inhibitor protects EAC 142 from lysis by human C3-C9; (iii) Test, Code 036 (C-Shunt inhibitor) -- In this test human erythrocytes rendered fragile are lysed in autologous serum via the shunt pathway activated by cobra venom factor in the presence of appropriate dilutions of the test compound. Inhibition of the shunt pathway results in failure of lysis; (iv) Forssman Vasculitis Test -- Here, the well known complement dependent lesion, Forssman vasculitis, is produced in guinea pigs by intradermal injection of rabbit anti-Forssman antiserum. The lesion is measured in terms of diameter, edema and hemorrhage and the extent to which a combined index of these is inhibited by prior intraperitoneal injection of the test compound at 200 mg/kg is then reported, unless otherwise stated; (v) Forssman Shock Test -- Lethal shock is produced in guinea pigs by an i.v. injection of anti-Forssman antiserum and the harmonic mean death time of treated guinea pigs is compared with that of simultaneous controls; (vi) Complement Level Reduction Test -- In this test, the above dosed guinea pigs, or others, are bled for serum and the complement level is determined in undiluted serum by the capillary tube method of U.S. Pat. No. 3,876,376 and compared to undosed control guinea pigs; and (vii) Cap 50 Test -- Here, appropriate amounts of the test compound are added to a pool of guinea pig serum in vitro, after which the undiluted serum capillary tube assay referred to above is run. The concentration of compound inhibiting 50% is reported.
With reference to Table I, guinea pigs weighing about 300 g were dosed intravenously (i.v.) or intraperitoneally (i.p.) with 200 mg/kg of the test compound dissolved in saline and adjusted to pH 7-8. […] Percent inhibition was calculated by comparison with simultaneous controls. […]

[8] = test system: human serum total hemolytic complement; details: in vitro and in vivo, reduction in total hemolytic complement activity; Pathologie Biologie, 25, 33-36 (1977); cited from earlier work

## Cc1ccc(C(=O)Nc2ccc(S(=O)(=O)O)c3cc(S(=O)(=O)O)cc(S(=O)(=O)O)c23)cc1NC(=O)c1cccc(NC(=O)Nc2cccc(C(=O)Nc3cc(C(=O)Nc4ccc(S(=O)(=O)O)c5cc(S(=O)(=O)O)cc(S(=O)(=O)O)c45)ccc3C)c2)c1 [Suramin]
[1]
  use in treatment of hereditary angioneurotic edema: used with success
[2]
  anticomplementary effect / complement inhibition: competitive inhibitor of the complement system

## NC[C@H]1CC[C@H](C(=O)O)CC1 [tranexamic acid]
[1]
  use in treatment of hereditary angioneurotic edema: used with success

## heparin
[2]
  anticomplementary effect / complement inhibition: anticomplementary effect

## NCCCCCC(=O)O [epsilon-aminocaproic acid]
[1]
  use in treatment of hereditary angioneurotic edema: used with success

## O=C(Nc1cc(NC(=O)Nc2cc(C(=O)O)cc(C(=O)O)c2)cc(NC(=O)Nc2cc(C(=O)O)cc(C(=O)O)c2)c1)Nc1cc(C(=O)O)cc(C(=O)O)c1 [5,5',5"-(s-Phenenyltriureylene)triisophthalic acid hexasodium salt]
[3]; Table I, anti-coagulant activity, two-fold serial dilutions
  AC Wells: < -2 Wells
[3]; Table II, highest active serial dilution
  In Vitro Activity, Anti-Coagulant Activity (Wells) AC: -2 Wells
[4]
  Shunt Inhibition 036 Wells: +1 Wells
[5]; antilogarithm (base 2) of the difference in wells
  Intrinsic Therapeutic Index: 256
[5]; log (base 2) difference Code 026 minus AC
  Logarithmic Difference Expressed as Wells: +8 Wells
[6]
  In Vitro Activity, Complement Inhibiting Activity (Wells) Code 026: +6 Wells
[7]; 30 mins.
  In Vivo Activity (Guinea Pig) % Inhibition, Intraperitoneal, 30 mins.: -43%
[7]; 60 mins.
  In Vivo Activity (Guinea Pig) % Inhibition, Intraperitoneal, 60 mins.: -9%
[7]; 120 mins.
  In Vivo Activity (Guinea Pig) % Inhibition, Intraperitoneal, 120 mins.: -41%

## pentosan-poly-sulfoester
[8]
  anticomplementary activity on human serum: anticomplementary activity on human serum both in vitro and in vivo

## Nc1ccc2cc(S(=O)(=O)O)cc(O)c2c1N=Nc1ccc(NC(=O)Nc2ccc(N=Nc3c(N)ccc4cc(S(=O)(=O)O)cc(O)c34)c(S(=O)(=O)O)c2)cc1S(=O)(=O)O [chlorazol fast pink, 3,3'-ureylenebis-[6-(2-amino-8-hydroxy-6-sulfo-1-naphthylazo)]benzenesulfonic acid, tetrasodium salt]
[2]
  anticomplementary effect / complement inhibition: anticomplementary effect
